Experimental data as given in US10330673B2, “Fluorescent chemical sensor for biological amines” (The Curators of the University of Missouri, priority 2013, dated 2019).

Experiments:
[1] = Fluorescence response mode toward catecholamines; type: binding; conditions: catecholamines norepinephrine and dopamine
[2] = Fluorescence quantum yield of sensor bound to norepinephrine; type: physicochemical
[3] = Fluorescence titration of sensor with glutamate; type: binding; conditions: for Ka: pH 5.0, 37° C.
Procedure: (§1) Fluorescence spectra were recorded on a Shimadzu RF-5301 PC spectrofluorometer at 37° C. A 1 mg/mL stock solution of I-2 in DMSO was prepared. A stock solution of I-2 in buffer (1×10^−5 M, 25 mM HEPES, 50 mM Na2S2O3, pH=5.0) was prepared. Norepinephrine, dopamine, epinephrine, and glutamate stock solutions were prepared by separately dissolving the analytes at the concentration to be used in the titration with the buffered stock solution of I-2 (thus avoiding dilution of I-2 during the experiment). I-2 was titrated with aliquots of analyte solution. The sensor was excited at 488 nm with slit widths of 5 nm.
(§2) Fluorescence spectra were recorded on a Shimadzu RF-5301 PC spectrofluorometer at 37° C. A separate 1 mg/mL stock solution of each coumarin-3-aldehyde derivative in DMSO was prepared. An aqueous stock solution of each derivative (10 μM) in buffer (25 mM HEPES, 50 mM Na2S2O3, pH=5.0) was prepared. Norepinephrine, dopamine, glutamate, and epinephrine stock solutions were prepared by separately dissolving the solid analytes at the concentration to be used in the titration with the buffered stock solutions described above and thus, avoiding dilution of the sensor during the experiment. The benzene-based NS521 derivatives were excited at 488 nm. The thiophene-based derivatives were excited at 515 nm.

[4] = Fluorescence titration of sensor with norepinephrine; type: binding; conditions: for Ka: pH 5.0, 37° C.
Procedure: as §1, §2

[5] = Fluorescence quantum yield of sensor bound to glutamate; type: physicochemical
Procedure: Steady-state fluorescence spectroscopic studies were performed using a Horiba Scientific Fluorolog-3 Model FL3C-111 spectrofluorometer and data was collected and analyzed using HJY FluorEssence™ 3.5.1.20 software package. UV-visible spectra were obtained on a Varian Cary 1E UV-visible spectrophotometer. A stock solution of each benzene- or thiophene-based coumarin-3-aldehyde derivative (1 μM) in buffer (25 mM HEPES, 50 mM Na2S2O3, pH=5.0) was prepared. Each solution contained 1% (v/v) DMSO as a cosolvent except as noted. The slit width was 2 nm for both excitation and emission. The bound benzene- and thiophene-coumarin-3-aldehyde derivatives contained 500 mM glutamate (pH=5.0).
To determine the relative quantum yield of fluorescence (Φfl) for the benzene-based derivatives, a 1.0 μM solution of fluorescein (absolute Φfl=0.85) in 0.1 N NaOH (pH 13) was used as a fluorescence standard. The unbound derivatives were excited at 473 nm and the bound derivatives were excited at 488 nm. To determine the relative quantum yield of fluorescence (Φfl) for the thiophene-based derivatives, a 1.0 μM solution of rhodamine B (absolute Φfl=0.31) in water (pH 7) was used as a fluorescence standard. The unbound derivatives were excited at 473 nm and the bound derivatives were excited at 515 nm. Quantum yields were obtained in triplicate and calculated as per the following equation: […]

[6] = Fluorescence titration of sensor with epinephrine; type: binding
Procedure: as §1, §2

[7] = Table 2, analyte glutamate, benzene-based compounds I, excited at 488 nm
[8] = Table 2, analyte norepinephrine, benzene-based compounds I, excited at 488 nm

Quantum Yield (Φ) [2]: 0.0033 | binding constants of catecholamines (norepinephrine, dopamine) relative to other alkyl amines such as glycine ([4]; higher binding constants): 10 fold | Quantum Yield (Φ) ([5]; bound to glutamate): 0.0095 | difference in quantum yields, bound to glutamate vs bound to norepinephrine ([5]; in words): three-fold
SMILES: CCN(CC)c1ccc2c(-c3ccc(OC)cc3)c(C=O)c(=O)oc2c1 [Compound I-2, 7-diethylamino-3-formyl-4-(4′-methoxyphenyl)coumarin]
mode of fluorescence response [1]: turn-on fluorescent sensor | F.E. [3, 7]: 7.82 | Ka [3, 7]: 9.63 M⁻¹ | Ka ([3]; amine guest glutamate, fluorescence spectroscopy, λex = 488 nm, λem = 521 nm): 10 M⁻¹ | Isat/Io (λex = 488 nm) ([3]; amine guest glutamate, intensity at saturation from fit to binding isotherm): 7.8 | F.E. [4, 8]: 5.40 | Ka [4, 8]: 77.76 M⁻¹ | Ka ([4]; amine guest norepinephrine, fluorescence spectroscopy, λex = 488 nm, λem = 521 nm): 75 M⁻¹ | Isat/Io (λex = 488 nm) ([4]; amine guest norepinephrine, intensity at saturation from fit to binding isotherm): 5.3 | Ka ([6]; amine guest epinephrine, fluorescence spectroscopy, λex = 488 nm, λem = 521 nm, pH 5.0, 37° C.): 0 M⁻¹ | interaction with secondary amines such as epinephrine ([6]; in words): does not interact
